In US20260325533A1, “CDK INHIBITOR COMPOUNDS” (ALEKSIA THERAPEUTICS, INC., priority 2023, published 2026):
Like-named read-outs stand apart in the source and are kept apart here. Each block holds one compound with its values, some of them ahead of it.

Assays:
Format in all cases: biochemical
[1] = molecular target: CDK1/CCNB1 (Homo sapiens, UniProt P06493); test: CDK1 homogeneous time-resolved fluorescence (HTRF) kinase assay
Procedure, shortened: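 0.5 nM CDK1/CCNB1 was preincubated 20 min at 23 °C with compound in HEPES pH-unspecified buffer (MgCl2, EGTA, DTT, Tween 20), then reacted 60 min with 1 mM ATP and 50 nM ULight-4E-BP1 (Thr37/46) peptide. EDTA-stopped reactions were detected with 2 nM Eu-anti-phospho antibody; IC50 from 11-point half-log titrations.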

[2] = molecular target: CDK2/CCNE1 (Homo sapiens, UniProt P24941); test: CDK2 homogeneous time-resolved fluorescence (HTRF) kinase assay
Procedure, shortened: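 An HTRF format measures CDK2/CCNE1 (3 nM) phosphorylating a 4E-BP1 Thr37/46 peptide at high (1 mM) ATP. Reactions run one hour at 23 °C, then EDTA-quenched and probed with Eu-labelled phospho-specific antibody.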

[3] = molecular target: CDK6/CCND1 (Homo sapiens, UniProt Q00534); test: CDK6 homogeneous time-resolved fluorescence (HTRF) kinase assay
CDK6/CCND1, sequence (Q00534 whole entry): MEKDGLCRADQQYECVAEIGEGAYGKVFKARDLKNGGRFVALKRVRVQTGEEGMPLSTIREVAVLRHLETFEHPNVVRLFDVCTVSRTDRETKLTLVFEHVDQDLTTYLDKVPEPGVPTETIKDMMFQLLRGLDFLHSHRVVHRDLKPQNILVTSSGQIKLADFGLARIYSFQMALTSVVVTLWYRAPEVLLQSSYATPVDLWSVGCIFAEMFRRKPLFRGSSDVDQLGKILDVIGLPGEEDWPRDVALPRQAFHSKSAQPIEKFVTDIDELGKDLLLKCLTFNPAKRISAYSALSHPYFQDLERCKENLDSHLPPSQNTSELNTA
CDK6/CCND1, sequence (P24385 whole entry partner): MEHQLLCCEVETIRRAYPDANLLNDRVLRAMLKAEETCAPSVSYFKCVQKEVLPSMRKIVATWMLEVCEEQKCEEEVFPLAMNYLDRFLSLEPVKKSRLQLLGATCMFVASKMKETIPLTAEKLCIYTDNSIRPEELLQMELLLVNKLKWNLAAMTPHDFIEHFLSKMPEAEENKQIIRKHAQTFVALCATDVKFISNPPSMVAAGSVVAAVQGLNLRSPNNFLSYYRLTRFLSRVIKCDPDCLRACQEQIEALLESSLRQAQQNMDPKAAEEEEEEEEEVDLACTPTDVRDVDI
Procedure, shortened: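 Recombinant CDK6/CCND1 (1 nM final) was preincubated with compound for 20 min at 23 °C in HEPES buffer with MgCl2, EGTA, DTT and Tween 20. Kinase reaction then ran 60 min at 23 °C with 1 mM ATP and 50 nM ULight-4E-BP1 (Thr37/46) peptide, and was stopped with EDTA.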

[4] = molecular target: CDK4/CCND3 (Homo sapiens, UniProt P11802); test: CDK4 homogeneous time-resolved fluorescence (HTRF) kinase assay
CDK4/CCND3, sequence (P11802 whole entry): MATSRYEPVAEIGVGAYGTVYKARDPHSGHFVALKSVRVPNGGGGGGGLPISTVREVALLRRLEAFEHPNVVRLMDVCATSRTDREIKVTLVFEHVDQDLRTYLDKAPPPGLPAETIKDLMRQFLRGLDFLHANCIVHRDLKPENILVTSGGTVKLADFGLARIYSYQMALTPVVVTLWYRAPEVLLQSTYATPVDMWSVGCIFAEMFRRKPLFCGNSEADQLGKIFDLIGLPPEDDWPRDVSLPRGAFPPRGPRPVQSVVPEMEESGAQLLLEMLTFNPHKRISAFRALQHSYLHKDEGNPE
CDK4/CCND3, sequence (P30281 whole entry partner): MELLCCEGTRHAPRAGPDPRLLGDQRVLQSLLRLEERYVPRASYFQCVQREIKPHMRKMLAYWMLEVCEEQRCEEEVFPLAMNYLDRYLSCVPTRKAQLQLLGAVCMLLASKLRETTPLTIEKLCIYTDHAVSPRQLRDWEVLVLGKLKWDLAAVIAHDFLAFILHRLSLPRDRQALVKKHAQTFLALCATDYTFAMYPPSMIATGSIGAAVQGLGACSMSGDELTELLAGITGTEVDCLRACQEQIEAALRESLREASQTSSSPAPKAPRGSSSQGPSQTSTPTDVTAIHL
Procedure, shortened: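 HTRF kinase assay, CDK4/CCND3 1.5 nM, ATP 1 mM, ULight-4E-BP1 peptide 50 nM, 23 °C, 60 min reaction after 20 min preincubation. Eu-anti-pThr37/46 antibody detection. 11-pt half-log curves from 10 μM → IC50.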

[5] = CDK1/CCNB, x = IC50 >250 nM, read-out: CDK1/CCNB IC50 (>250 nM column)
[6] = CDK2/CCNE, x = IC50 <25 nM, read-out: CDK2/CCNE IC50 (<25 nM)
[7] = CDK6/CCND, x = IC50 25-250 nM, read-out: CDK6/CCND IC50 (25-250 nM)
[8] = CDK4/CCND, x = IC50 25-250 nM, read-out: CDK4/CCND IC50 (25-250 nM)
[9] = CDK2/CCNE, x = IC50 25-250 nM, read-out: CDK2/CCNE IC50 (25-250 nM)
[10] = CDK6/CCND, x = IC50 >250 nM, read-out: CDK6/CCND IC50 (>250 nM column)
[11] = CDK4/CCND, x = IC50 >250 nM, read-out: CDK4/CCND IC50 (>250 nM column)
[12] = >250 nM, CDK1/CCNB, read-out: CDK1/CCNB IC50 >250 nM
[13] = <25 nM, CDK2/CCNE, read-out: CDK2/CCNE IC50, <25 nM
[14] = 25-250 nM, CDK6/CCND, 1 mM ATP, read-out: CDK6/CCND IC50, 25-250 nM
[15] = 25-250 nM, CDK4/CCND, read-out: CDK4/CCND IC50, 25-250 nM
[16] = CDK1/CCNB, >250 nM marked x, read-out: CDK1/CCNB IC50 >250 nM
[17] = CDK2/CCNE, <25 nM, read-out: CDK2/CCNE IC50 <25 nM
[18] = CDK4/CCND, 25-250 nM marked x, read-out: CDK4/CCND IC50 25-250 nM
[19] = CDK1/CCNB, x = IC50 25-250 nM, read-out: CDK1/CCNB IC50 (25-250 nM)
[20] = 25-250 nM, CDK2/CCNE, read-out: CDK2/CCNE IC50, 25-250 nM
[21] = >250 nM, CDK6/CCND, 1 mM ATP, read-out: CDK6/CCND IC50, >250 nM
[22] = >250 nM, CDK4/CCND, read-out: CDK4/CCND IC50, >250 nM

CDK1/CCNB1, sequence (P06493 whole entry): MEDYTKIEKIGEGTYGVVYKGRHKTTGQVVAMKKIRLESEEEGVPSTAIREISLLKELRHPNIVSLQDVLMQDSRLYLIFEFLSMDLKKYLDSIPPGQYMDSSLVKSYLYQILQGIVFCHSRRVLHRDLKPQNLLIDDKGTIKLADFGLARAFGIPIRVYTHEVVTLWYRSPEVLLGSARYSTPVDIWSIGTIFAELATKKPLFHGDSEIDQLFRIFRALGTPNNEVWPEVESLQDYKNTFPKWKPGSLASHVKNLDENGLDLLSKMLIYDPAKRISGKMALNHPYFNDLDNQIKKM
CDK1/CCNB1, sequence (P14635 whole entry partner): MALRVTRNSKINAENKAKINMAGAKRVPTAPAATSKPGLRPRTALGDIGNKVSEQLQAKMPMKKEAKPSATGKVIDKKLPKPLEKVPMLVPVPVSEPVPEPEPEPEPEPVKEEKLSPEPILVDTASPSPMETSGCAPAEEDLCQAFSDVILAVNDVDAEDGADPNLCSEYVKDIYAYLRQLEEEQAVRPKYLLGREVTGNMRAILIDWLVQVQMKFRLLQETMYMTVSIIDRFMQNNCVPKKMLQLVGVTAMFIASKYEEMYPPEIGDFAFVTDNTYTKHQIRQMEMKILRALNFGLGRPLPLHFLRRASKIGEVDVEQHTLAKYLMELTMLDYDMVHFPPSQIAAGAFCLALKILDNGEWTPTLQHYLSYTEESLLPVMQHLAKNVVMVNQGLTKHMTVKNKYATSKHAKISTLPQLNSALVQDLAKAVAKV

SMILES: CC1(C)C(=O)Nc2cc(C#Cc3nccc4cnc(Nc5ccc(S(C)(=O)=O)nc5)cc34)ccc21 [Ex 425, 3,3-dimethyl-6-((7-((6-(methylsulfonyl)pyridin-3-yl)amino)-2,6-naphthyridin-1-yl)ethynyl)indolin-2-one]
- IC50 [1, 5]: > 250 nM
- IC50 [2, 9]: 25 to 250 nM
- IC50 [3, 10]: > 250 nM
- IC50 [4, 11]: > 250 nM

SMILES: C=CS(=O)(=O)c1ccc(Nc2cc3c(-c4ccc5ocnc5c4)nccc3cn2)cc1 [Ex 145, 5-(benzo[d]oxazol-5-yl)-N-(4-(vinylsulfonyl)phenyl)-2,6-naphthyridin-3-amine]
- IC50 [1, 16]: > 250 nM
- IC50 ([2]; CDK2/CCNE, 25-250 nM marked x, read-out: CDK2/CCNE IC50 25-250 nM): 25 to 250 nM
- IC50 ([3]; CDK6/CCND, >250 nM marked x, read-out: CDK6/CCND IC50 >250 nM): > 250 nM
- IC50 ([4]; CDK4/CCND, >250 nM marked x, read-out: CDK4/CCND IC50 >250 nM): > 250 nM

SMILES: CS(=O)(=O)c1ccc(Nc2cc3c(C#Cc4c[nH]c5ncccc45)nccc3cn2)cc1 [Ex 522, 5-((1H-pyrrolo[2,3-b]pyridin-3-yl)ethynyl)-N-(4-(methylsulfonyl)phenyl)-2,6-naphthyridin-3-amine]
- IC50 [1, 5]: > 250 nM
- IC50 [2, 9]: 25 to 250 nM
- IC50 [3, 10]: > 250 nM
- IC50 [4, 11]: > 250 nM

SMILES: CS(=O)(=O)c1ccc(Nc2cc3c(C#Cc4ccc5c(c4)NC(=O)C54CC4)nccc3cn2)cc1 [Ex 445, 6'-((7-((4-(methylsulfonyl)phenyl)amino)-2,6-naphthyridin-1-yl)ethynyl)spiro[cyclopropane-1,3'-indolin]-2'-one]
- IC50 [1, 19]: 25 to 250 nM
- IC50 [2, 6]: < 25 nM
- IC50 [3, 7]: 25 to 250 nM
- IC50 [4, 8]: 25 to 250 nM

SMILES: CS(=O)(=O)c1ccc(Nc2cc3c(C4=NCCS4)nccc3cn2)cc1 [Ex 139, 5-(4,5-dihydrothiazol-2-yl)-N-(4-(methylsulfonyl)phenyl)-2,6-naphthyridin-3-amine]
- IC50 ([1]; CDK1/CCNB, 25-250 nM marked x, read-out: CDK1/CCNB IC50 25-250 nM): 25 to 250 nM
- IC50 [2, 17]: < 25 nM
- IC50 ([3]; CDK6/CCND, 25-250 nM marked x, read-out: CDK6/CCND IC50 25-250 nM): 25 to 250 nM
- IC50 [4, 18]: 25 to 250 nM

SMILES: Cc1c(-c2nccc3cnc(Nc4ccc(S(C)(=O)=O)cc4)cc23)ccc2c1cnn2C(C)(C)C(N)=O [Ex 610, 2-methyl-2-(4-methyl-5-(7-((4-(methylsulfonyl)phenyl)amino)-2,6-naphthyridin-1-yl)-1H-indazol-1-yl)propanamide]
- IC50 [1, 5]: > 250 nM
- IC50 [2, 9]: 25 to 250 nM
- IC50 [3, 10]: > 250 nM
- IC50 [4, 11]: > 250 nM

SMILES: CCC1(CC)C(=O)Nc2cc(C#Cc3nccc4cnc(Nc5ccc(S(=N)(=O)CC)cc5)cc34)ccc21 (single isomer, unassigned) [Ex 411, 3,3-diethyl-6-((7-((4-(ethylsulfonimidoyl)phenyl)amino)-2,6-naphthyridin-1-yl)ethynyl)indolin-2-one]
- IC50 [1, 19]: 25 to 250 nM
- IC50 [2, 6]: < 25 nM
- IC50 [3, 10]: > 250 nM
- IC50 [4, 11]: > 250 nM

Continued, values first:

- IC50 [1, 5]: > 250 nM
- IC50 [2, 6]: < 25 nM
- IC50 [3, 7]: 25 to 250 nM
- IC50 [4, 8]: 25 to 250 nM
SMILES: Cc1c(-c2nccc3cnc(Nc4ccc(S(C)(=N)=O)cc4)cc23)ccc2c1cnn2CC(O)(C(F)(F)F)C(F)(F)F (centres unmarked) [Example 482, Imino(methyl)(4-((5-(4-methyl-1-(3,3,3-trifluoro-2-hydroxy-2-(trifluoromethyl)propyl)-1H-indazol-5-yl)-2,6-naphthyridin-3-yl)amino)phenyl)-λ^6-sulfanone]

- IC50 [1, 12]: > 250 nM
- IC50 [2, 13]: < 25 nM
- IC50 [3, 14]: 25 to 250 nM
- IC50 [4, 15]: 25 to 250 nM
SMILES: Cc1ccnc(NS(=O)(=O)c2ccc(Nc3cc4c(-c5ccc6c(cnn6CC(C)(C)O)c5C)nccc4cn3)cc2)c1 [Ex 841, 4-((5-(1-(2-hydroxy-2-methylpropyl)-4-methyl-1H-indazol-5-yl)-2,6-naphthyridin-3-yl)amino)-N-(4-methylpyridin-2-yl)benzenesulfonamide]

- IC50 [1, 16]: > 250 nM
- IC50 [2, 17]: < 25 nM
- IC50 ([3]; CDK6/CCND, <25 nM, read-out: CDK6/CCND IC50 <25 nM): < 25 nM
- IC50 [4, 18]: 25 to 250 nM
SMILES: C=CS(=O)(=O)N1CCC(Nc2cc3c(-c4cccc(C#N)c4)nccc3cn2)CC1 [Example 24, 3-(7-((1-(vinylsulfonyl)piperidin-4-yl)amino)-2,6-naphthyridin-1-yl)benzonitrile]

- IC50 [1, 12]: > 250 nM
- IC50 [2, 20]: 25 to 250 nM
- IC50 [3, 21]: > 250 nM
- IC50 [4, 22]: > 250 nM
SMILES: COc1ccccc1NS(=O)(=O)c1ccc(Nc2cc3c(-c4ccc5c(cnn5CC(O)(C(F)(F)F)C(F)(F)F)c4C)nccc3cn2)cc1 [Ex 714, N-(2-methoxyphenyl)-4-((5-(4-methyl-1-(3,3,3-trifluoro-2-hydroxy-2-(trifluoromethyl)propyl)-1H-indazol-5-yl)-2,6-naphthyridin-3-yl)amino)benzenesulfonamide]

- IC50 [1, 19]: 25 to 250 nM
- IC50 [2, 6]: < 25 nM
- IC50 [3, 7]: 25 to 250 nM
- IC50 [4, 8]: 25 to 250 nM
SMILES: Cc1c(-c2nccc3cnc(Nc4ccc(S(=N)(N)=O)cc4)cc23)ccc2c1cnn2CC(O)(C(F)(F)F)C(F)(F)F (single isomer, unassigned) [Ex 679, 4-((5-(4-methyl-1-(3,3,3-trifluoro-2-hydroxy-2-(trifluoromethyl)propyl)-1H-indazol-5-yl)-2,6-naphthyridin-3-yl)amino)benzenesulfonimidamide]

- IC50 [1, 5]: > 250 nM
- IC50 [2, 9]: 25 to 250 nM
- IC50 [3, 10]: > 250 nM
- IC50 [4, 11]: > 250 nM
SMILES: CS(=O)(=O)c1ccc(Nc2cc3c(C#Cc4cc(Cl)n[nH]c4=O)nccc3cn2)cc1 [Ex 612, 6-chloro-4-((7-((4-(methylsulfonyl)phenyl)amino)-2,6-naphthyridin-1-yl)ethynyl)pyridazin-3(2H)-one]

- IC50 [1, 12]: > 250 nM
- IC50 [2, 13]: < 25 nM
- IC50 [3, 14]: 25 to 250 nM
- IC50 [4, 15]: 25 to 250 nM
SMILES: Cc1c(-c2nccc3cnc(Nc4ccc(S(=O)(=O)NC5CC5)cc4)cc23)ccc2c1cnn2CC(C)(C)O [Ex 794, N-cyclopropyl-4-((5-(1-(2-hydroxy-2-methylpropyl)-4-methyl-1H-indazol-5-yl)-2,6-naphthyridin-3-yl)amino)benzenesulfonamide]

- IC50 [1, 5]: > 250 nM
- IC50 [2, 6]: < 25 nM
- IC50 [3, 7]: 25 to 250 nM
- IC50 [4, 11]: > 250 nM
SMILES: CC(C)(O)CN1CCc2cc(-c3nccc4cnc(Nc5ccc(S(C)(=O)=O)cc5)cc34)ccc2C1 [Example 629, 2-Methyl-1-(6-(7-((4-(methylsulfonyl)phenyl)amino)-2,6-naphthyridin-1-yl)-3,4-dihydroisoquinolin-2(1H)-yl)propan-2-ol]

- IC50 [1, 12]: > 250 nM
- IC50 [2, 20]: 25 to 250 nM
- IC50 [3, 21]: > 250 nM
- IC50 [4, 22]: > 250 nM
SMILES: COc1cccc(NS(=O)(=O)c2ccc(Nc3cc4c(-c5ccc6c(cnn6CC(O)(C(F)(F)F)C(F)(F)F)c5C)nccc4cn3)cc2)c1 [Ex 717, N-(3-methoxyphenyl)-4-((5-(4-methyl-1-(3,3,3-trifluoro-2-hydroxy-2-(trifluoromethyl)propyl)-1H-indazol-5-yl)-2,6-naphthyridin-3-yl)amino)benzenesulfonamide]

- IC50 ([1]; 0.5 nM CDK1/CCNB1, 1 mM ATP, read-out: CDK1/CCNB IC50 25-250 nM): 25 to 250 nM
- IC50 ([2]; 3 nM CDK2/CCNE1, 1 mM ATP, read-out: CDK2/CCNE IC50 <25 nM): < 25 nM
- IC50 ([3]; 1 nM CDK6/CCND1, 1 mM ATP, read-out: CDK6/CCND IC50 <25 nM): < 25 nM
- IC50 ([4]; 1.5 nM CDK4/CCND3, 1 mM ATP, read-out: CDK4/CCND IC50 <25 nM): < 25 nM
SMILES: CS(=O)(=O)c1ccc(Nc2ncc3ccc(C#N)c(N4CCC(C#N)CC4)c3n2)cc1 [Example 957, 8-(4-cyanopiperidin-1-yl)-2-((4-(methylsulfonyl)phenyl)amino) quinazoline-7-carbonitrile]
